Key:
[1] = molecular target: T1, human histamine H4 receptor (Homo sapiens, UniProt Q9H3N8); assay: Evaluation of Human H4 Receptor Affinity ([3H]histamine binding); details: inhibition constant Ki, CHO-K1 membrane preparation, read-out: Evaluation of H4 Receptor Affinity
T1 construct: purchased PerkinElmer Inc; host or cells: CHO-K1
Outline: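 Membranes from CHO-K1 cells expressing human H4 receptor incubated with 8.2 nM [3H]histamine and compound for 90 min at 25 °C in 50 mM Tris-HCl pH 7.4, 1.25 mM EDTA, then filtered and counted. Nonspecific binding defined with 1.0 μM histamine; Ki from IC50 by Cheng-Prusoff using Kd 5.7 nM.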

[2] = molecular target: T1, human histamine H4 receptor; assay: Evaluation of H4 Receptor Function ([35S]GTPγS binding); assay type: biochemical; details: [35S]GTPγS binding, CHO-K1 membrane, 0.1 μM histamine; read-out: Evaluation of H4 Receptor Function (IC50 value, antagonistic effect)
Method: The antagonistic effect was evaluated by the method described below. Membrane preparation from recombinant CHO-K1 cell expressing the human histamine H4 receptor (PerkinElmer Inc.), 10 μM GDP, 0.1 μM histamine, and the compounds dissolved in DMSO were reacted at 30° C. for 20 minutes in a buffering solution containing 20 mM HEPES, pH 7.4, 100 mM NaCl, 10 mM MgCl2, 1 mM DTT, and 1 mM EDTA on an assay plate. Thereafter, SPA beads (Amersham plc) were added, followed by incubation for 60 minutes, and further 0.3 nM [^35S]GTPγS (PerkinElmer Inc.) was added, followed by incubation for 30 minutes.

[3] = molecular target: T2, human histamine H1 receptor (Homo sapiens, UniProt P35367); assay: Evaluation of Human H1 Receptor Affinity ([3H]pyrilamine binding); parameters: purchased PerkinElmer Inc; host or cells: CHO-K1; details: inhibition constant Ki, CHO-K1 membrane preparation
T2 sequence (P35367 whole entry): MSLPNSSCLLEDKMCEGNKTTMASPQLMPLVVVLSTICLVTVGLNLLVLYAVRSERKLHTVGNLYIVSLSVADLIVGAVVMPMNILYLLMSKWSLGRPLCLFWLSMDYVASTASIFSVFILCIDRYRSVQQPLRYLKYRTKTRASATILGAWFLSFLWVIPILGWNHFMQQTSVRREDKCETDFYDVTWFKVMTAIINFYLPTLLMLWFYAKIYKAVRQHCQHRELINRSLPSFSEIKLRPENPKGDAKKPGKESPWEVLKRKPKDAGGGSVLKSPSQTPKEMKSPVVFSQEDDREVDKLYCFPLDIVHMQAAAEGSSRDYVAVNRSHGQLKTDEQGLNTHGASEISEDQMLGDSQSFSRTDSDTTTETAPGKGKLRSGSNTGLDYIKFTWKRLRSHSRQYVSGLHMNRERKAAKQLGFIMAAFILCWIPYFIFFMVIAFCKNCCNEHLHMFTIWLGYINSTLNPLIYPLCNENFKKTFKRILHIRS
Outline: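 Ki values are Cheng-Prusoff conversions of IC50 (Kd 1.1 nM) from radioligand displacement of 1.2 nM [3H]pyrilamine, with 1.0 μM pyrilamine defining nonspecific binding.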

[4] = molecular target: T2, human histamine H1 receptor; assay: Evaluation of Human H1 Receptor Function (GeneBLAzer H1-NFAT-bla HEK 293T cells); assay type: cell-based; details: histamine 30 nM, read-out: Evaluation of H1 Receptor Function (IC50 value, antagonistic effect)
Method: Test Example 3: Evaluation of Human H1 Receptor Function
The antagonistic effect was evaluated by the method described below. GeneBLAzer® H1-NFAT-bla HEK 293T-cells (Invitrogen Corporation, recombinant cells expressing the human histamine H1 receptor) were incubated at 37° C. for 30 minutes in the presence of the test compounds dissolved in DMSO in a high glucose Dulbecco's Modified Eagle Medium (GlutaMAX, containing 10% fetal bovine serum, 100 μM nonessential amino acids, 25 mM HEPES, 100 U/mL penicillin, and 100 μg/mL streptomycin), and histamine was added such that the final concentration became 30 nM, followed by further incubation for 4.5 hours. Then, a mixture of LiveBLAzer™ FRET-B/G Loading Kit (Invitrogen Corporation) and Solution D (Invitrogen Corporation) was added, followed by leaving to stand at room temperature for 2 hours under shaded conditions. Thereafter, the fluorescence intensity was measured under two conditions of 400 nm/460 nm and 400 nm/535 nm (excitation light/fluorescence) by using a multilabel counter (EnVision: PerkinElmer Inc.). The 50% inhibitory concentration (IC50 value) was calculated in accordance with (measured value−blank measured value at 400 nm/460 nm)/(measured value−blank measured value at 400 nm/535 nm) of each test sample.

T1 sequence (Q9H3N8 whole entry): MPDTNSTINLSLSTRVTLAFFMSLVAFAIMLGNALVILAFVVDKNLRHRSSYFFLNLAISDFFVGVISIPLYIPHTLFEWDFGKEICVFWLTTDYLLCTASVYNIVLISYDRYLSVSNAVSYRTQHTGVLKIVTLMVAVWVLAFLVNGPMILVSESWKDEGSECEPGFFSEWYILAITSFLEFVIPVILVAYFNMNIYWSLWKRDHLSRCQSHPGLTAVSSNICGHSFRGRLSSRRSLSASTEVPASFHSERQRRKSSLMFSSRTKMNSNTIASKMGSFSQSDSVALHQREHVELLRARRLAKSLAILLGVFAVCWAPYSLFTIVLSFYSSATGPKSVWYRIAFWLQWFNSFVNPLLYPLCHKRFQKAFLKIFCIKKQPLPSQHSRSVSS

SMILES	Ki [1] [nM]	IC50 [2] [nM]	Ki [3] [nM]	IC50 [4] [nM]
Nc1nc2c(c(N3CCN(CCOCCOCC(=O)O)CC3)n1)CCc1cc(OCc3ccc(Cl)cc3)ccc1-2 [11(b), 2-(2-(2-(4-(2-amino-8-((4-chlorobenzyl)oxy)-5,6-dihydrobenzo[h]quinazolin-4-yl)piperazin-1-yl)ethoxy)ethoxy)acetic Acid]	< 100	200 to 2000	< 100	< 200
Nc1nc2c(c(N3CCN(CCOCc4cccc(C(=O)O)c4)CC3)n1)CCc1cc(OCc3ccc(Cl)cc3)ccc1-2 [15(b), 3-((2-(4-(2-amino-8-((4-chlorobenzyl)oxy)-5,6-dihydrobenzo[h]quinazolin-4-yl)piperazin-1-yl)ethoxy)methyl)benzoic acid]	< 100	200 to 2000	< 100	< 200
Nc1nc2c(c(N3CCN(CCOCc4cccc(C(=O)O)c4)CC3)n1)CCc1cc(OCc3ccc(OC(F)(F)F)cc3)ccc1-2 [16(b), 3-((2-(4-(2-amino-8-((4-(trifluoromethoxy)benzyl)oxy)-5,6-dihydrobenzo[h]quinazolin-4-yl)piperazin-1-yl)ethoxy)methyl)benzoic acid]	< 100	200 to 2000	< 100	< 200
Nc1nc2c(c(N3CCN(CCOCc4ccc(F)c(C(=O)O)c4)CC3)n1)CCc1cc(OCc3ccc(Cl)cc3)ccc1-2 [17(b), 5-((2-(4-(2-amino-8-((4-chlorobenzyl)oxy)-5,6-dihydrobenzo[h]quinazolin-4-yl)piperazin-1-yl)ethoxy)methyl)-2-fluorobenzoic acid]	< 100	200 to 2000	< 100	< 200
Nc1nc2c(c(N3CCN(CCOCc4cccc(C(=O)O)n4)CC3)n1)CCc1cc(OCc3ccc(Cl)cc3)ccc1-2 [18(b), 6-((2-(4-(2-amino-8-((4-chlorobenzyl)oxy)-5,6-dihydrobenzo[h]quinazolin-4-yl)piperazin-1-yl)ethoxy)methyl)picolinic acid bis(trifluoroacetate)]	< 100	200 to 2000	< 100	< 200
Nc1nc2c(c(N3CCN(CCOc4ccc(C(=O)O)cc4)CC3)n1)CCc1cc(OCc3ccc(Cl)cc3)ccc1-2 [19(b), 4-(2-(4-(2-amino-8-((4-chlorobenzyl)oxy)-5,6-dihydrobenzo[h]quinazolin-4-yl)piperazin-1-yl)ethoxy)benzoic acid]	< 100	< 200	100 to 500	200 to 2000
Nc1nc2c(c(N3CCN(CCOCc4ccc(C(=O)O)o4)CC3)n1)CCc1cc(OCc3ccc(OC(F)(F)F)cc3)ccc1-2 [20(b), 5-((2-(4-(2-amino-8-((4-(trifluoromethoxy)benzyl)oxy)-5,6-dihydrobenzo[h]quinazolin-4-yl)piperazin-1-yl)ethoxy)methyl)furan-2-carboxylic acid]	< 100	200 to 2000	< 100	< 200
Nc1nc2c(c(N3CCN(CCO[C@H]4C[C@@H](C(=O)O)C4)CC3)n1)CCc1cc(OCc3ccc(OC(F)(F)F)cc3)ccc1-2 [23(b), cis-3-(2-(4-(2-amino-8-((4-(trifluoromethoxy)benzyl)oxy)-5,6-dihydrobenzo[h]quinazolin-4-yl)piperazin-1-yl)ethoxy)cyclobutane-1-carboxylic acid]	< 100	< 200	< 100	< 200
Nc1nc2c(c(N3CCN(CCOCc4ccc(C(=O)O)o4)CC3)n1)CCc1cc(OCc3ccc(Cl)cc3)ccc1-2 [127(b), 5-((2-(4-(2-amino-8-((4-chlorobenzyl)oxy)-5,6-dihydrobenzo[h]quinazolin-4-yl)piperazin-1-yl)ethoxy)methyl)furan-2-carboxylic acid]	100 to 500	200 to 2000	< 100	< 200

Reference: US20190047966A1, “NOVEL COMPOUND AND PHARMACOLOGICALLY ACCEPTABLE SALT THEREOF” (MEIJI SEIKA PHARMA CO., LTD., priority 2016, published 2019)
